From paper PMC11525561, “Gliflozins, sucrose and flavonoids are allosteric activators of lecithin-cholesterol acyltransferase” (Scientific Reports, 2024)
Where two headings read alike, the source gives them in different places.

Tests used:
LCAT [1] = tested on: LCAT; design: method as in PMID 30479275; settings: MUP assay; cited from earlier work
[2] = cited from earlier work
LCAT [3] = target: T1, LCAT (Homo sapiens, UniProt P04180); assay: DHE esterification acyltransferase assay with synthetic HDL (sHDL); format: biochemical; design: 6x histidine-tag (C); made in house; host or cells: 293T cells (ATCC CRL-3216); settings: for acyltransferase Emax / Emax: normalized against LCAT + DMSO; for acyltransferase efficiency: kcat divided by Km
T1 sequence (P04180 25-440): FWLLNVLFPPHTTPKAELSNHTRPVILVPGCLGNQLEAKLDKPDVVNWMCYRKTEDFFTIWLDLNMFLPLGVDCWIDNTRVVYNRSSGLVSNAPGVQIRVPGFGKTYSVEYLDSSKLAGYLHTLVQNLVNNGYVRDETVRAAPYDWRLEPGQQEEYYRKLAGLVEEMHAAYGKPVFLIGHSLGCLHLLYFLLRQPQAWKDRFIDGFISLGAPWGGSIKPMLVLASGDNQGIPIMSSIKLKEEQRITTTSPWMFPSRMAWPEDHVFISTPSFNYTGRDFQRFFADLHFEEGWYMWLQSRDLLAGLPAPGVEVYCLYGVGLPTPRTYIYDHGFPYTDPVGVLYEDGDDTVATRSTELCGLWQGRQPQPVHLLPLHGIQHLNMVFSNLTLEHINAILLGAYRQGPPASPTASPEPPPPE
Method: The acyltransferase activity of LCAT was measured by using the fluorescent sterol DHE as a substrate. DHE is integrated in the structure of discoidal synthetic HDL (sHDL) made of peptides (22A) and phospholipids (DMPC). As a consequence of the acyltransferase activity of LCAT, DHE is esterified and stored in the inner core of sHDL as DHE-ester. The esterification is responsible for a shift in the emission wavelength of DHE from 372 nm to 425 nm, allowing the exclusive detection of DHE-ester and monitoring of the reaction.
DHE-sHDL was prepared via thermal cycling. In a glass vial, DHE and DMPC dissolved in chloroform were mixed with a molar ratio of 1:9. The organic solvent was dried with Rotavapor R-200 (BUCHI, Switzerland) at room temperature. The resulting dried thin lipid layer was hydrated with assay buffer (PBS 20 mM + EDTA 1 mM) and vortexed until complete dissolution. The solution was homogenized in a water bath sonicator at room temperature until transparency. 22A peptides dissolved in assay buffer were added to the vial (lipid to protein 2:1 w/w). The solution was incubated via three heating-cooling cycles (50 °C x 3 min; 4 °C x 3 min). […] The acyltransferase activity assay was performed in 384 well low volume black microplates with a final volume of 25 µL. PAM (0.1 mg/mL in DMSO) or DMSO were incubated with LCAT (5 µg/mL in assay buffer + 60 µM albumin (Merck)) 1:100 v/v at 37 °C gently shaken. After 30 min incubation, 10 µL of each reaction (LCAT + DMSO or LCAT + PAM) was added to the plate. To start the reaction, 10 µL of DHE-sHDL solution were added in the wells. The plate was incubated for 1 h at 37 °C gently shaken. Reactions were stopped by the addition of 5 µL of stop solution (assay buffer + 5 units/mL cholesterol oxidase COx + 7% Triton X-100). Plates went through a second round of incubation at 37 °C gently shaken for 1 h to extinguish the residual fluorescence of unesterified DHE. […] DHE-ester fluorescence was detected at an excitation wavelength of 325 nm and an emission wavelength of 425 nm using Varioskan LUX. Reactions without LCAT were used for background subtraction, while reactions without LCAT and stop solution without COx were used to generate a standard curve for DHE (λex 325 nm, λem 372 nm). Reactions were performed in triplicates with three independent experiments. Due to the light sensitivity of DHE, samples were protected from light during the entire preparation and assay. Data was processed via background subtraction, divided by the slope of the standard curve to obtain the amount of DHE-esters in every well and then divided further by the reaction time to determine the rate. The acyltransferase activity (DHE-ester formed) was plotted as a function of the DHE concentration. Data were fitted to the Michaelis-Menten kinetic equation by non-linear regression. Apparent Vmax and Km were calculated using OriginPro 2021b software, while acyltransferase efficiency of each PAM was calculated by dividing kcat by Km. […] The acyltransferase activities of our PAMs were compared to the reference compound A (Supplementary Fig. 2).
PAMs were diluted in DMSO reaching a final concentration of 0.001, 0.01, 0.1, 1 and 10 µM in the wells. Reactions were conducted exactly as above, using the same LCAT concentration and the same volumes. The experiment was performed in triplicate with three independent experiments. Fluorescence signals were processed via background subtraction (DHE-sHDL + buffer + stop solution), divided by the slope of the standard curve to obtain the amount of DHE-esters in every well and then divided further by the reaction time to determine the rate. Data were normalized against no PAM control (LCAT + DMSO). The acyltransferase activity (DHE-ester formed) was plotted as a function of the PAM concentration.

LCAT [4] = target: T1, LCAT; assay: MUP based phospholipase assay; format: biochemical; design: 6x histidine-tag (C); made in house; host or cells: 293T cells (ATCC CRL-3216); settings: for phospholipase efficiency: kcat divided by Km; for increase of phospholipase Vmax / increase of phospholipase efficiency: versus LCAT without compounds
Method: The phospholipase activity of LCAT was evaluated by using MUP as a substrate. The reaction was monitored with the increased fluorescence signal due to the formation of the reaction product MU. The assay was performed at room temperature in reaction buffer (0.1 M sodium phosphate buffer, pH 7.4). 55 µL of LCAT in reaction buffer (0.01 mg/mL) were incubated at 37 °C gently shaken with 0.41 µL of PAM (2 mg/mL in DMSO) or DMSO. After 1 h incubation, 2 µL of each reaction (LCAT + DMSO, LCAT + PAM, reaction buffer + PAM) was added to a black 384 well microplate, low volume (Corning). A MUP stock solution 1 mg/mL in DMSO + 3% Triton X-100 was diluted in a reaction buffer to 0, 10, 40, 60 and 120 µM. 18 µL of each dilution was added to the plate to start the reaction. The MUP stock solution was diluted immediately before use due to the self-hydrolysis of MUP to MU in aqueous buffers. The phospholipase activity of LCAT was monitored by fluorescence signal using Varioskan LUX (Thermo Scientific) plate reader at an excitation wavelength of 340 nm and an emission wavelength of 460 nm every 10 min for 60 min. Background signal due to MUP self-hydrolysis was subtracted from each result. Reactions were performed in triplicates with three independent experiments. Reaction rates were obtained by dividing the data by the assay time. To calculate the amount of MU produced in each reaction, a standard curve was generated from a MU stock solution 100 mM in DMSO and diluted further in reaction buffer. The phospholipase activity (MU mM) was plotted as a function of the MUP concentration. Data were fitted to the Michaelis-Menten kinetic equation by non-linear regression. Apparent Vmax and Km were calculated with OriginPro 2021b (MA, USA) software (version 9.8.5.212), while phospholipase efficiency of each PAM was calculated by dividing kcat by Km. The absence of fluorescence interference coming from PAMs was checked at an excitation wavelength of 340 nm before starting the assay (Supplementary Fig. 3). The phospholipase activities of our PAMs were compared to a positive control compound A (Supplementary Fig. 2)[17].

LCAT [5] = target: T1, LCAT; design: method as in PMID 4214409; settings: blood of diabetes patients before and after insulin treatment; cited from earlier work
[6] = design: method as in PMID 9827549, PMID 19110406; settings: cited from earlier work
[7] = DHE 50 µM, PAM concentration varied
[8] = DHE 50 µM, PAM concentration varied, mean ± SEM of triplicate, read-out: acyltransferase EC50
[9] = PAM 3 µM, DHE concentration varied, mean ± SEM
[10] = PAM 3 µM, versus LCAT without compounds
[11] = MUP concentration varied, mean ± SEM

Row | SMILES | increase of LCAT acyltransferase activity (LCAT [3]; [7]) | EC50 (LCAT [3]; [8]) | acyltransferase Vmax (LCAT [3]; [9]) | improvement of acyltransferase efficiency (LCAT [3]; [10]) | acyltransferase efficiency (LCAT [3]; PAM 3 µM) | phospholipase Vmax (LCAT [4]; [11]) | phospholipase efficiency (LCAT [4]) | Emax (LCAT [3]; DHE 50 µM) | other results
1 | N#Cc1cnc(N2CCC(c3n[nH]c4c3C(O)(C(F)(F)F)CC(=O)N4)CC2)cc1C(F)(F)F (stereo not shown) [1b] |  |  |  |  |  |  |  |  | phospholipase activity compared to LCAT (LCAT [1]): 230%
2 | Cc1ccc([C@@H]2O[C@H](CO)[C@@H](O)[C@H](O)[C@H]2O)cc1Cc1ccc(-c2ccc(F)cc2)s1 [canagliflozin] | 150% | 80 ± 20 nM | 14.78 ± 0.34 µM h^− 1 | roughly 100% | 44.46 ± 2.43 µM⁻¹ h⁻¹ | 15.70 ± 0.66 µM h^− 1 | 34.63 ± 0.97 µM⁻¹ h⁻¹ |  | bound to proteins in plasma [2]: 99%; acyltransferase Emax (LCAT [3]; DHE 50 µM): 254.34±23.72%; Km (LCAT [3]; [9]): 8.37 ± 0.57 µM; increase of acyltransferase Vmax (LCAT [3]; [10]): 70%; Km (LCAT [4]; [11]): 22.7 ± 0.95 µM; increase of phospholipase Vmax (LCAT [4]): 130%; increase of phospholipase efficiency (LCAT [4]): 340%
3 | CCOc1ccc(Cc2cc([C@@H]3O[C@H](CO)[C@@H](O)[C@H](O)[C@H]3O)ccc2Cl)cc1 [dapagliflozin] | roughly 100% | 80 ± 40 nM | 12.13 ± 0.46 µM h^− 1 |  | 31.54 ± 2.93 µM⁻¹ h⁻¹ | 11.68 ± 1.15 µM h^− 1 | 12.82 ± 2.80 µM⁻¹ h⁻¹ | 196 ± 13.4% | bound to proteins in plasma [2]: 91%; increase of phospholipase Vmax (LCAT [4]): 70%
4 | OC[C@H]1OC(O)[C@H](O)[C@@H](O)[C@@H]1O (stereo partly shown) [glucose] |  |  |  |  |  |  |  |  | activation of LCAT (LCAT [5]): cannot activate LCAT
5 | O=c1cc(-c2ccc(O)c(O)c2)oc2cc(O)cc(O)c12 [luteolin] | roughly 100% | 100 ± 10 nM | 11.71 ± 0.43 µM h^− 1 | roughly 100% | 36.95 ± 2.13 µM⁻¹ h⁻¹ | 10.91 ± 1.50 µM h^− 1 | 17.11 ± 4.72 µM⁻¹ h⁻¹ | 191 ± 16.1% | 
6 | COC(=O)Nc1nc2ccc(C(=O)c3ccccc3)cc2[nH]1 [mebendazole] | no effect |  | 6.58 ± 0.26 µM h^− 1 |  | 18.92 ± 2.45 µM⁻¹ h⁻¹ | 7.95 ± 1.90 µM h^− 1 | 6.28 ± 1.06 µM⁻¹ h⁻¹ |  | effect on acyltransferase activity at 21.6 µM DHE (LCAT [3]; 21.6 µM DHE, PAM 3 µM): inhibited activity slightly; acyltransferase EC50 (LCAT [3]; DHE 50 µM, PAM concentration varied, mean ± SEM of triplicate): no effect; acyltransferase Emax (LCAT [3]; DHE 50 µM): no effect
7 | OC[C@H]1O[C@@](CO)(O[C@H]2O[C@H](CO)[C@@H](O)[C@H](O)[C@H]2O)[C@@H](O)[C@@H]1O [sucrose] | roughly 100% |  | 11.18 ± 0.80 µM h^− 1 | roughly 100% | 38.88 ± 9.05 µM⁻¹ h⁻¹ | 8.79 ± 0.81 µM h^− 1 | 22.43 ± 4.38 µM⁻¹ h⁻¹ | 176 ± 12.5% | oral bioavailability [6]: poor; EC50 (LCAT [3]): 120 ± 60 nM; increase of phospholipase efficiency (LCAT [4]): 180%
8 | O=C1c2c(O)cc(O)cc2OC(c2ccc(O)c(O)c2)C1O (stereo not shown) [taxifolin] | roughly 100% | 120 ± 40 nM | 13.55 ± 0.67 µM h^− 1 |  | 22.69 ± 1.94 µM⁻¹ h⁻¹ | 10.71 ± 0.49 µM h^− 1 | 19.60 ± 0.01 µM⁻¹ h⁻¹ | 211 ± 21.4% | 
